One data set concerns the target T1, eotaxin-2 (Homo sapiens, UniProt O00175).
T1 sequence (O00175 27-119): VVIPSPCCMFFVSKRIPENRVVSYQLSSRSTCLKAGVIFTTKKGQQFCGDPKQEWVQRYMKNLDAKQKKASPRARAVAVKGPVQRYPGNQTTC
In words: BIAcore inhibition of eotaxin-2 binding to immobilized heparin. Particulars: BIAcore chip, FIG. 3E. From the text: The optical phenomenon of surface plasmon resonance is used to monitor physical interactions between molecules. Passing a solution of a potential protein ligand (e.g. IL-4, IL-5 or eotaxin) over a sensor surface to which a target (e.g. heparin) is coupled monitors the real-time binding of protein ligands to the immobilized target. Detection is achieved by measuring refractive index changes very close to the sensor surface. When the refractive index is altered, the angle at which plasmon resonance occurs changes and this change directly correlates with the amount of protein interacting with the surface. A BIAcore 2000 is conveniently used. […]
Biotinylated heparin is immobilized on the biosensor chip. […] Solutions containing potential protein ligands of interest are injected over the sensor chip surface, and the binding is measured in real time (Fernig, In: Proteoglycan protocols, Ed. R. V. Iozzo, Humana Press, Totowa, N.J., USA, 2001). Baculovirus expressed recombinant human IL-4 (rhIL-4) and baculovirus expressed recombinant human IL-5 (rhIL-5) readily bind to heparin immobilized by this method (see PCT/AU2005/000551). […] Similarly, recombinant human eotaxin (CCL11) expressed in E. coli binds readily to immobilized heparin and binding is specific as there is little eotaxin binding to sensor chips lacking heparin. […]
(In SPR one partner is held on a chip, and binding of the other changes the refractive index at the surface.)

The target of data set [1] is recombinant human IL-2 (rhIL-2) (Homo sapiens, UniProt P60568). In words: IL-2 dependent CTL-Luc cell proliferation. In kind it is cell-based. From the text: The murine cytotoxic T lymphocytic line (CTLL) is a subclone of T cells derived from a C57bl/6 mouse. The cells require interleukin-2 (IL-2) for growth and are used to assay for its presence in conditioned media. The cells are responsive to both murine and human IL-2. CTLL cells have been transfected with the firefly luciferase gene contained in the expression vector, pPGK-puromycin-luciferase (Coombe et al, 1998, supra). The positive transfectants are cloned to produce a line with good luciferase expression and these cells are called CTL-Luc. The proliferation assays are carried out in 96-well microplates suitable for such assays (Falcon). […] The cells are counted with a Coulter Z2 Particle Counter and Size Analyzer (Coulter Electronics, England) and routinely 1.6×10^4 cells are added to microplate wells that contain either no recombinant human IL-2 (rhIL-2) (negative control) or various dilutions of rhIL-2. When the effect of PPS, or other sulfated polysaccharides is to be measured, the wells also contain various concentrations of these molecules.
The CTL-Luc cells proliferate for 24 hours at 37° C. in a humidified atmosphere, after which the luciferase activity is measured by the addition of 50 μl of luciferase substrate buffer (50 mM Tris-HCl, pH 7.8, 15 mM MgSO4, 33.3 mM DTT, 0.1 mM EDTA, 0.5 mM Na-luciferin, 0.5 mM ATP, 0.25 mM lithium Co A and 0.5% v/v Triton X-100). […]

As usually defined, the IC50 is the concentration that gives 50% inhibition. High values mean a need for much substance, low ones inhibition by little substance.

Sequence of recombinant human IL-2 (rhIL-2) (P60568 21-153): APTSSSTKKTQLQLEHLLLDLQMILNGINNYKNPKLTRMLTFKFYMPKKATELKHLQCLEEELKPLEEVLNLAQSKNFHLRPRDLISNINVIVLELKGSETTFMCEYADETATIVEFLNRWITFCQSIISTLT

Pentosan polysulfate [PPS] showed an IC50 at eotaxin-2 of approximately 0.015 µM. Besides, the “Effect on proliferation of CTL-Luc cells obtained with rhIL-2” value in data set [1] (10 μg/ml or 1 μg/ml, rhIL-2 1.25 ng/ml, FIG. 9) is on record as “no effect”. Further, the “Toxicity to cytokine dependent lymphocytic cell lines” value in data set [1] (IL-2 and GM-CSF responsive cell lines, 10 and 1 μg/ml) is “not toxic”.

The record behind these values is patent US20180078576A1, “SULPHATED XYLANS FOR TREATMENT OR PROPHYLAXIS OF RESPIRATORY DISEASES” (Paradigm Biopharmaceuticals Limited, priority 2007, published 2018).
